Experimental data: patent publication EP1029854A1, “Oxazolidinones and their use as antibacterial agents” (BAYER AG, priority 1999, dated 2000)
≈ marks a conversion by molar mass, not a printed value.

Tested on: S.aureus 133
Test: MIC (MHK) determination by microdilution method in BH medium
Assay type: cell-based
Settings: for MIC: Staphylococcus aureus, S.aureus 133, microdilution in BH-Medium, 37°C, read after ca. 20 hours or 3 to 5 days, lowest concentration with no visible growth, samples Diastereomer 1 /Diastereomer 2 = 100:1, read-out: MHK-Werte; for Wirksameres Diastereomer: qualitative comparison with Diastereomer 2 of the same example, test not named in the heading, presumably the MIC test
Protocol: Die MHK-Werte wurden mit Hilfe der Mikrodilutionsmethode in BH-Medium bestimmt. Jede Prüfsubstanz wurde in DMSO gelöst. In der Mikrotiterplatte wurde durch serielle Verdünnung eine Konzentrationsreihe der Prüfsubstanzen angelegt. Zur Inokulation wurden Übernachtkulturen der Erreger verwandt, die zuvor im Nährmedium 1:250 verdünnt wurden. Zu 100 µl der verdünnten, wirkstoffhaltigen Nährlösungen wurden je 100 µl Inokulationslösung gegeben.
Die Mikrotiterplatten wurden bei 37°C bebrütet und nach ca. 20 Stunden oder nach 3 bis 5 Tagen abgelesen. Der MHK-Wert (µg/ml) gibt die niedrigste Wirkstoffkonzentration an, bei der kein Wachstum zu erkennen war.

SMILES: C#CC(O)[C@H]1CN(c2ccc3c(c2)OCc2nccn2-3)C(=O)O1 (single isomer, unassigned) [Beispiel 2]
- MIC: 1 mg/L (≈ 3.21 µM)

SMILES: C=CC(O)[C@H]1CN(c2ccc3c(c2)OCc2nccn2-3)C(=O)O1 (single isomer, unassigned) [Beispiel 1]
- MIC: 1.5 mg/L (≈ 4.79 µM)

SMILES: C#CC(O)[C@H]1CN(c2ccc3c(c2)OCc2nccn2-3)C(=O)O1 (single isomer, unassigned) [Beispiel 2 Diastereomer 1]
- Wirksameres Diastereomer: Wirksameres Diastereomer

SMILES: C=CC(O)[C@H]1CN(c2ccc3c(c2)OCc2nccn2-3)C(=O)O1 (single isomer, unassigned) [Beispiel 1 Diastereomer 1]
- Wirksameres Diastereomer: Wirksameres Diastereomer
